PubChem BioAssay AID330 (DTP/NCI, 2004)
Values joined by “and” are separate entries in the source; they are usually repeats but may differ in a detail not shown here. Identical values can stand only once. Toxic doses and inconclusive results are not listed. The calls were made as follows: active = survival T/C of 150% or more; inactive = T/C below 125% in these data.

Tested on: P388 leukemia ip, CD2F1 mice, survival T/C
Test: NCI In Vivo Anticancer Drug Screen. Data for tumor model P388 Leukemia (intraperitoneal) in CD2F1 (CDF1) mice
Settings: endpoint: median survival time, higher = longer survival
Outline: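 Mice carrying the transplanted tumor received test compound or vehicle. Survival was recorded in each group, and the value is the treated-group measurement divided by that of the vehicle-treated control group.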

Measured: T/C

O=NN(C(=O)NC1CCOCC1)C1CCOCC1
inactive: dose: 25.0 mg/kg/injection, schedule: Q01DX001 (ip), vehicle: distilled water + Tween-80 101 % of control | dose: 50.0 mg/kg/injection, schedule: Q01DX001 (ip), vehicle: distilled water + Tween-80 101 % of control | dose: 100.0 mg/kg/injection, schedule: Q01DX001 (ip), vehicle: distilled water + Tween-80 102 % of control | dose: 200.0 mg/kg/injection, schedule: Q01DX001 (ip), vehicle: distilled water + Tween-80 105 % of control | dose: 400.0 mg/kg/injection, schedule: Q01DX001 (ip), vehicle: distilled water + Tween-80 102 % of control

COC1/C=C\C=C(/C)C(=O)NC2=CC(=O)C(N)=C(CC(C)CC(OC)C(O)C(C)C=C(C)C1OC(N)=O)C2=O (stereo not drawn)
inactive: dose: 0.75 mg/kg/injection, schedule: Q01DX009 (ip), vehicle: saline with Tween-80 103 % of control | dose: 1.5 mg/kg/injection, schedule: Q01DX009 (ip), vehicle: saline with Tween-80 105 % of control | dose: 3.0 mg/kg/injection, schedule: Q01DX009 (ip), vehicle: saline with Tween-80 111 % of control | dose: 6.0 mg/kg/injection, schedule: Q01DX009 (ip), vehicle: saline with Tween-80 87 % of control

Cc1[nH]c(C)c(Cl)c(=O)c1Cl
inactive: dose: 6.25 mg/kg/injection, schedule: Q01DX009 (ip), vehicle: Klucel (hydroxypropylcellulose) (HPC) 98 % of control | dose: 12.5 mg/kg/injection, schedule: Q01DX009 (ip), vehicle: Klucel (hydroxypropylcellulose) (HPC) 100 % of control | dose: 25.0 mg/kg/injection, schedule: Q01DX009 (ip), vehicle: Klucel (hydroxypropylcellulose) (HPC) 115 % of control

O=C(OCCCl)c1ccccc1NC(=O)N1CCOCC1
inactive: dose: 50.0 mg/kg/injection, schedule: Q01DX005 (ip), vehicle: Klucel (hydroxypropylcellulose) (HPC) 105 % of control | dose: 100.0 mg/kg/injection, schedule: Q01DX005 (ip), vehicle: Klucel (hydroxypropylcellulose) (HPC) 99 % of control | dose: 200.0 mg/kg/injection, schedule: Q01DX005 (ip), vehicle: Klucel (hydroxypropylcellulose) (HPC) 98 % of control

CC(C)(C)P(c1ccccc1)C(C)(C)C
inactive: dose: 100.0 mg/kg/injection, schedule: Q04DX002 (ip), vehicle: saline with Tween-80 103 % of control

CCSCCC(N)C(=O)O (stereo not drawn)
inactive: dose: 12.5 mg/kg/injection, schedule: Q01DX009 (ip), vehicle: saline with Tween-80 95 % of control | dose: 25.0 mg/kg/injection, schedule: Q01DX009 (ip), vehicle: saline with Tween-80 100 % of control | dose: 50.0 mg/kg/injection, schedule: Q01DX009 (ip), vehicle: saline with Tween-80 100 % of control | dose: 100.0 mg/kg/injection, schedule: Q04DX003 (ip), vehicle: saline with Tween-80 104 % of control | dose: 200.0 mg/kg/injection, schedule: Q04DX003 (ip), vehicle: saline with Tween-80 100 % of control | dose: 400.0 mg/kg/injection, schedule: Q04DX003 (ip), vehicle: saline with Tween-80 109 % of control

CNC(=O)Nc1nc2ccc([N+](=O)[O-])cc2[nH]1
inactive: dose: 200.0 mg/kg/injection, schedule: Q04DX003 (oral), vehicle: saline with Tween-80 110 % of control | dose: 400.0 mg/kg/injection, schedule: Q04DX003 (oral), vehicle: saline with Tween-80 112 % of control | dose: 800.0 mg/kg/injection, schedule: Q04DX003 (oral), vehicle: saline with Tween-80 116 % of control and 121 % of control

O=S(=O)(/N=C1/c2ccccc2/C(=N/S(=O)(=O)c2ccccc2)C2CC=CCC12)c1ccccc1 (stereo not drawn)
inactive: dose: 6.25 mg/kg/injection, schedule: Q01DX001 (ip), vehicle: saline with Tween-80 100 % of control | dose: 12.5 mg/kg/injection, schedule: Q01DX001 (ip), vehicle: saline with Tween-80 95 % of control | dose: 25.0 mg/kg/injection, schedule: Q01DX001 (ip), vehicle: saline with Tween-80 100 % of control

CCOC(=O)/C(C#N)=C/N1CCCC1
inactive: dose: 6.25 mg/kg/injection, schedule: Q01DX005 (ip), vehicle: saline with Tween-80 107 % of control | dose: 12.5 mg/kg/injection, schedule: Q01DX005 (ip), vehicle: saline with Tween-80 96 % of control | dose: 25.0 mg/kg/injection, schedule: Q01DX005 (ip), vehicle: saline with Tween-80 104 % of control

CC(=O)NC1C(Nc2ccc(S(=O)(=O)Nc3cc(C)nc(C)n3)cc2)OC(CO)C(O)C1O (stereo not drawn)
inactive: dose: 50.0 mg/kg/injection, schedule: Q01DX005 (ip), vehicle: saline 108 % of control | dose: 100.0 mg/kg/injection, schedule: Q01DX005 (ip), vehicle: saline 98 % of control | dose: 200.0 mg/kg/injection, schedule: Q01DX005 (ip), vehicle: saline 101 % of control

c1ccc2c3c([nH]c2c1)[C@@H]1CCN2CCC[C@@H]2N1CC3
inactive: dose: 5.75 mg/kg/injection, schedule: Q01DX005 (ip), vehicle: Klucel (hydroxypropylcellulose) (HPC) 101 % of control | dose: 11.5 mg/kg/injection, schedule: Q01DX005 (ip), vehicle: Klucel (hydroxypropylcellulose) (HPC) 100 % of control | dose: 23.0 mg/kg/injection, schedule: Q01DX005 (ip), vehicle: Klucel (hydroxypropylcellulose) (HPC) 95 % of control | dose: 46.0 mg/kg/injection, schedule: Q01DX005 (ip), vehicle: Klucel (hydroxypropylcellulose) (HPC) 93 % of control
